Results as given in article PMC3694096, “Development of Novel In Vivo Chemical Probes to Address CNS Protein Kinase Involvement in Synaptic Dysfunction” (PLoS ONE, 2013).
Read-outs that look alike come from different tables or passages of the source.

Assays:
[1] = target: T1, IKKα (Homo sapiens, UniProt O15111); assay: Kinome profiler screen; type: biochemical; conditions: at 20,000 nM inhibitor; kinase activity remaining
T1 construct: purchased Millipore KinaseProfiler

[2] = target: T2, SGK (Homo sapiens, UniProt O00141); assay: Kinome profiler screen; type: biochemical; conditions: at 20,000 nM inhibitor; kinase activity remaining
T2 construct: purchased Millipore KinaseProfiler

[3] = target: T3, HIPK3 (Homo sapiens, UniProt Q9H422); assay: Kinome profiler screen; type: biochemical; conditions: at 20,000 nM inhibitor; kinase activity remaining
T3 construct: purchased Millipore KinaseProfiler

[4] = target: T4, SGK3 (Homo sapiens, UniProt Q96BR1); assay: Kinome profiler screen; type: biochemical; conditions: at 20,000 nM inhibitor; kinase activity remaining
T4 construct: purchased Millipore KinaseProfiler

[5] = target: T5, PI3 Kinase (p110 β/p85α)(m) (Mus musculus, UniProt Q8BTI9); assay: Kinome profiler screen; type: biochemical; conditions: at 20,000 nM inhibitor; kinase activity remaining
T5 construct: purchased Millipore KinaseProfiler

[6] = target: T6, LOK (Homo sapiens, UniProt O94804); assay: Kinome profiler screen; type: biochemical; conditions: for activity at 20 µM: at 20,000 nM inhibitor, kinase activity remaining
T6 construct: purchased Millipore

[7] = target: T7, EphA3 (Homo sapiens, UniProt P29320); assay: Kinome profiler screen; type: biochemical; conditions: at 20,000 nM inhibitor; kinase activity remaining
T7 construct: purchased Millipore KinaseProfiler

[8] = target: T8, PI3 Kinase (p110β/p85α) (Homo sapiens, UniProt P42338); assay: Kinome profiler screen; type: biochemical; conditions: at 20,000 nM inhibitor; kinase activity remaining
T8 construct: purchased Millipore KinaseProfiler

[9] = target: T9, DCAMKL2 (Homo sapiens, UniProt Q8N568); assay: Kinome profiler screen; type: biochemical; conditions: at 20,000 nM inhibitor; kinase activity remaining
T9 construct: purchased Millipore KinaseProfiler

[10] = target: T10, PIP5K1γ (Homo sapiens, UniProt O60331); assay: Kinome profiler screen; type: biochemical; conditions: at 20,000 nM inhibitor; kinase activity remaining
T10 construct: purchased Millipore KinaseProfiler

[11] = target: T11, ULK2 (Homo sapiens, UniProt Q8IYT8); assay: Kinome profiler screen; type: biochemical; conditions: at 20,000 nM inhibitor; kinase activity remaining
T11 construct: purchased Millipore KinaseProfiler

[12] = target: T12, EGFR(T790M) (Homo sapiens, UniProt P00533, T790M); assay: Kinome profiler screen; type: biochemical; conditions: at 20,000 nM inhibitor; kinase activity remaining
T12 construct: purchased Millipore KinaseProfiler

[13] = target: T13, EphB3 (Homo sapiens, UniProt P54753); assay: Kinome profiler screen; type: biochemical; conditions: at 20,000 nM inhibitor; kinase activity remaining
T13 construct: purchased Millipore KinaseProfiler

[14] = target: T14, CHK2 (Homo sapiens, UniProt O96017); assay: Kinome profiler screen; type: biochemical; conditions: at 20,000 nM inhibitor; kinase activity remaining
T14 construct: purchased Millipore KinaseProfiler

[15] = target: T15, HIPK1 (Homo sapiens, UniProt Q86Z02); assay: Kinome profiler screen; type: biochemical; conditions: at 20,000 nM inhibitor; kinase activity remaining
T15 construct: purchased Millipore KinaseProfiler

[16] = target: T16, eEF-2K (Homo sapiens, UniProt O00418); assay: Kinome profiler screen; type: biochemical; conditions: at 20,000 nM inhibitor; kinase activity remaining
T16 construct: purchased Millipore KinaseProfiler

[17] = target: T17, CHK2(I157T) (Homo sapiens, UniProt O96017, I157T); assay: Kinome profiler screen; type: biochemical; conditions: at 20,000 nM inhibitor; kinase activity remaining
T17 construct: purchased Millipore KinaseProfiler

[18] = target: T18, DRAK1 (Homo sapiens, UniProt Q9UEE5); assay: Kinome profiler screen; type: biochemical; conditions: at 20,000 nM inhibitor; kinase activity remaining
T18 construct: purchased Millipore KinaseProfiler

[19] = target: T19, TrkB (Homo sapiens, UniProt Q16620); assay: Kinome profiler screen; type: biochemical
T19 construct: purchased Millipore KinaseProfiler

[20] = target: T20, EphA7 (Homo sapiens, UniProt Q15375); assay: Kinome profiler screen; type: biochemical; conditions: for activity at 20 µM: at 20,000 nM inhibitor, kinase activity remaining
T20 construct: purchased Millipore

[21] = target: T21, Tie2(Y897S) (Homo sapiens, UniProt Q02763, Y897S); assay: Kinome profiler screen; type: biochemical; conditions: at 20,000 nM inhibitor; kinase activity remaining
T21 construct: purchased Millipore KinaseProfiler

[22] = target: T22, Met(D1246H) (Homo sapiens, UniProt P08581, D1228H); assay: Kinome profiler screen; type: biochemical; conditions: at 20,000 nM inhibitor; kinase activity remaining
T22 construct: purchased Millipore KinaseProfiler

[23] = target: T23, CaMKIIδ (Homo sapiens, UniProt Q13557); assay: Kinome profiler screen; type: biochemical; conditions: at 20,000 nM inhibitor; kinase activity remaining
T23 construct: purchased Millipore KinaseProfiler

[24] = tested on: contextual and cued learning; assay: Fear conditioning, Aβ42-infused mice; type: in vivo, C57BL/6J mice; conditions: for cued learning: 24 hrs after contextual learning, control test; for contextual fear memory deficit: Aβ42-infused mice
[25] = target: T24, NLK (Homo sapiens, UniProt Q9UBE8); assay: biochemical
T24 sequence (Q9UBE8 1-527): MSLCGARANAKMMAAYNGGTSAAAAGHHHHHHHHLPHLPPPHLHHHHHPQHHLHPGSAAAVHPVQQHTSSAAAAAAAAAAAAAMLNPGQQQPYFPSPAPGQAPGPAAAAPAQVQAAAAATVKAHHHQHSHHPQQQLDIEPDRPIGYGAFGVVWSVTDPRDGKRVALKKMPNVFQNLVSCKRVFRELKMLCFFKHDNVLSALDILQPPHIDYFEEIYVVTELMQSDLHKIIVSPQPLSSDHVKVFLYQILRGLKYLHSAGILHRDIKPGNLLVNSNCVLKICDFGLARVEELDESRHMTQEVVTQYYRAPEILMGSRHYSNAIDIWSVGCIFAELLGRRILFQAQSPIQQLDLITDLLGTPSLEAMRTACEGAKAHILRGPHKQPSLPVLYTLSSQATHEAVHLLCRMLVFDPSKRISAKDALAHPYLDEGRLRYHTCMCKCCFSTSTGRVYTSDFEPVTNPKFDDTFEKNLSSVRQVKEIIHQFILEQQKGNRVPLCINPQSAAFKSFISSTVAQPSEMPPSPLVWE

T6 sequence (O94804 whole entry): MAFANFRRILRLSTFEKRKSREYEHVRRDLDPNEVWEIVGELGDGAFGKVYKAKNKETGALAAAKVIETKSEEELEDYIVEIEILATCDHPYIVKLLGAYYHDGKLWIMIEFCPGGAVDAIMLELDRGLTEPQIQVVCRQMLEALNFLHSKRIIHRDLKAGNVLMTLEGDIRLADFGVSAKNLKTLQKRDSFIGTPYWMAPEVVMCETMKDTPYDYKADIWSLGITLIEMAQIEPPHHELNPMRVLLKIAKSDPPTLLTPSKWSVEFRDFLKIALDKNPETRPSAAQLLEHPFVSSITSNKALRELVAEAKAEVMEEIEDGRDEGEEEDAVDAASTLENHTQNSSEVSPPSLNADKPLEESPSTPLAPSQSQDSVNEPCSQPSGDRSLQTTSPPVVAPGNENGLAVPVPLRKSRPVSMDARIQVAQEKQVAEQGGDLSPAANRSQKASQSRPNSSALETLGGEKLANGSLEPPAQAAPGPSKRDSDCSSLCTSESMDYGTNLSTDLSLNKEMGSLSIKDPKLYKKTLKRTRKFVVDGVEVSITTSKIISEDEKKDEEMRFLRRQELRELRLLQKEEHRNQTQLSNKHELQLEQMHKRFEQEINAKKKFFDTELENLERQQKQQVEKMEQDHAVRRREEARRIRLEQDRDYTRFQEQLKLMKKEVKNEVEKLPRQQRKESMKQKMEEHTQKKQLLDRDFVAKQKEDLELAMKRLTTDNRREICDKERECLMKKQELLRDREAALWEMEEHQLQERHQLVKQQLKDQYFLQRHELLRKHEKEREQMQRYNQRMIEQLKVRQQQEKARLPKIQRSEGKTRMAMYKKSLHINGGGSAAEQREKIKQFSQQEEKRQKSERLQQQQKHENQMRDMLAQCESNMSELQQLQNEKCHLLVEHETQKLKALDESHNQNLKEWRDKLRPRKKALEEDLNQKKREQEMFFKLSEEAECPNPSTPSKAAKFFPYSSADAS
T20 sequence (Q15375 28-998): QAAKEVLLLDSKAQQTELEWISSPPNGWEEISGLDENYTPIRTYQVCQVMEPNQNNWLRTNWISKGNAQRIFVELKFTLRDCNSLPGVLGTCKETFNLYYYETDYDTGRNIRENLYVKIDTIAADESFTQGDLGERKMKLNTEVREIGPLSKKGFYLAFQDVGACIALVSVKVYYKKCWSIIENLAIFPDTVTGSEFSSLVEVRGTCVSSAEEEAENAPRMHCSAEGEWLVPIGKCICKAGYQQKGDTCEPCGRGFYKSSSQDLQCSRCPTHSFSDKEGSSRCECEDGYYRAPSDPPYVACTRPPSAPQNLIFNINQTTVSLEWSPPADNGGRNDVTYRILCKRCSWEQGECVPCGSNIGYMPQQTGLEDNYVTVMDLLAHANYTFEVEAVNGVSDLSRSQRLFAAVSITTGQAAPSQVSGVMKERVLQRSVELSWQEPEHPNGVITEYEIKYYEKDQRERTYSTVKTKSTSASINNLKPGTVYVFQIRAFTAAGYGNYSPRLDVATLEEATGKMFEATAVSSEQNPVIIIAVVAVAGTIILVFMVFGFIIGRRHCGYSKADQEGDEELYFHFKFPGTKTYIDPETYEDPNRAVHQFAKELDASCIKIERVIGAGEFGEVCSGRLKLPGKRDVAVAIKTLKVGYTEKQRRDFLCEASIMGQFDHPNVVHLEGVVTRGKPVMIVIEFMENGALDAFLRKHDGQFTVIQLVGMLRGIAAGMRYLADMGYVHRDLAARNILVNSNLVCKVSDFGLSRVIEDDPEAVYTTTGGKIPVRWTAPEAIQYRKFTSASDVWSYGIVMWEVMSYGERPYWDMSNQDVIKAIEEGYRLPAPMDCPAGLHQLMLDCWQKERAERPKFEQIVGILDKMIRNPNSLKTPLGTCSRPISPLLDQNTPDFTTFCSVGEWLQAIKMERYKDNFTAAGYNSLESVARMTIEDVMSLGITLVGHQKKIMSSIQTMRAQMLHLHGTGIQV
T17 sequence (O96017 whole entry I157T): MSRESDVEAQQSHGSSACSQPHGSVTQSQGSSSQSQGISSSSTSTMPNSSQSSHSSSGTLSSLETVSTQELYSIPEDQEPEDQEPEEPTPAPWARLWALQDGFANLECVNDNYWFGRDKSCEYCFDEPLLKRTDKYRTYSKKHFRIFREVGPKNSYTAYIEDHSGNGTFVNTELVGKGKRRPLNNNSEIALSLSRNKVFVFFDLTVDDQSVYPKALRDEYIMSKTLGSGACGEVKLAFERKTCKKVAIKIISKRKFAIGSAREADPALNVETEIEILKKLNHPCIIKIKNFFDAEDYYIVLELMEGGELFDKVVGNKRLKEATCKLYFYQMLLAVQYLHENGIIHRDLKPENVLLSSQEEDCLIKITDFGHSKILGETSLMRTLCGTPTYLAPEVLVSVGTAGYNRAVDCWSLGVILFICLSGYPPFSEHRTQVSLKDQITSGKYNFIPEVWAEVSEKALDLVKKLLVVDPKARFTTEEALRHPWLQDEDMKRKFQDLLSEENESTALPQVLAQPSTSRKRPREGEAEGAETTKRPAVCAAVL
T1 sequence (O15111 whole entry): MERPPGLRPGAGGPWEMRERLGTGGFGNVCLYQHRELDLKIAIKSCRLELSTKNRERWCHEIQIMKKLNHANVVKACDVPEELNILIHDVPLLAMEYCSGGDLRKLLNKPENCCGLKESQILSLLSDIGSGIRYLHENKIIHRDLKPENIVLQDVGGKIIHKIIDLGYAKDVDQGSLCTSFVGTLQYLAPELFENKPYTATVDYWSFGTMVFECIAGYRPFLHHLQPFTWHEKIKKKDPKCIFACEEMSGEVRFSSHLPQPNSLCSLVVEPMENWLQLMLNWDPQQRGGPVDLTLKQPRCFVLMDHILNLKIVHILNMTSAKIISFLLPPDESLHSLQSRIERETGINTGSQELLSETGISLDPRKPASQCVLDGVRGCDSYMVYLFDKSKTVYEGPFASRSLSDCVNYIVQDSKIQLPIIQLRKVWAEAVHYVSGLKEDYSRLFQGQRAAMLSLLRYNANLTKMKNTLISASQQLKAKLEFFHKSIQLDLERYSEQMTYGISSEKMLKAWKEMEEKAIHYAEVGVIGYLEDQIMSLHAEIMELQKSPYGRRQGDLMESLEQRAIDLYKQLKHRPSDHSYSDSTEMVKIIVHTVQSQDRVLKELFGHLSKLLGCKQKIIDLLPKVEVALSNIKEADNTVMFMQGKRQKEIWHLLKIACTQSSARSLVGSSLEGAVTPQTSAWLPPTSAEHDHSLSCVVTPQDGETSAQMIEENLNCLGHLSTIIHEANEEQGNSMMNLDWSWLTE
T14 sequence (O96017 whole entry): as the sequence (O96017 whole entry I157T) above, with T157I counted along it
T15 sequence (Q86Z02 whole entry): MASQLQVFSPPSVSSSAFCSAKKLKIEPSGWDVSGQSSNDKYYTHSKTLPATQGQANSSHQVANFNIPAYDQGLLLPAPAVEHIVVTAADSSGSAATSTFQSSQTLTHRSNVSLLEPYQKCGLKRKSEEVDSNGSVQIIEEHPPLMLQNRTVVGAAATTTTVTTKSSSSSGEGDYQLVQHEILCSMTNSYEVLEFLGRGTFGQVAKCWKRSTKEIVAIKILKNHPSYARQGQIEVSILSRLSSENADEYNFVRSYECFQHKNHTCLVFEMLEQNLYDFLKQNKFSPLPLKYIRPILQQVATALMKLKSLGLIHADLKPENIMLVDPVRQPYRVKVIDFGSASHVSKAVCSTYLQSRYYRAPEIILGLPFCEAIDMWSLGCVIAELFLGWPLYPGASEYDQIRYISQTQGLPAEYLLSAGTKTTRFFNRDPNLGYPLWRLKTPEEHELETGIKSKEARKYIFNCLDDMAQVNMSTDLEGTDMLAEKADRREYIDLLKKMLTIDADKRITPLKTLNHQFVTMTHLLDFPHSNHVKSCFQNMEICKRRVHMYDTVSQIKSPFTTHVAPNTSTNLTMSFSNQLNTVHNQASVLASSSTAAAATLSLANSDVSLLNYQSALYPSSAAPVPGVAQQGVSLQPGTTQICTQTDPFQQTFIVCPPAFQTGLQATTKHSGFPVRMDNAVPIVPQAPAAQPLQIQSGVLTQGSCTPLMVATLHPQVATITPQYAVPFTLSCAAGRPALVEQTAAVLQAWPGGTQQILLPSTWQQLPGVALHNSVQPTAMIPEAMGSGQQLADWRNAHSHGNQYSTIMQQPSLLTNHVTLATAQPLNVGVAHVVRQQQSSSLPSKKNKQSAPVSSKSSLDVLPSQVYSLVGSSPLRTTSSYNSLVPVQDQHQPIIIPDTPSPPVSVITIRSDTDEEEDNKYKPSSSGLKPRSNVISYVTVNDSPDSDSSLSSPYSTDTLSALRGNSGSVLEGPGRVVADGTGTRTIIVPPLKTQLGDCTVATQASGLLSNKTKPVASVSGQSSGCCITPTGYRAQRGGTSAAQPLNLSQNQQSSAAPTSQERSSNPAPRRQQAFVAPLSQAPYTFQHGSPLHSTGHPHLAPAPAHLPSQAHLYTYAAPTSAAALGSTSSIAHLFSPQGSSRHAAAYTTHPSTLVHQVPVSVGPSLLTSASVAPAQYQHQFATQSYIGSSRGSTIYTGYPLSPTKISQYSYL
T2 sequence (O00141 whole entry): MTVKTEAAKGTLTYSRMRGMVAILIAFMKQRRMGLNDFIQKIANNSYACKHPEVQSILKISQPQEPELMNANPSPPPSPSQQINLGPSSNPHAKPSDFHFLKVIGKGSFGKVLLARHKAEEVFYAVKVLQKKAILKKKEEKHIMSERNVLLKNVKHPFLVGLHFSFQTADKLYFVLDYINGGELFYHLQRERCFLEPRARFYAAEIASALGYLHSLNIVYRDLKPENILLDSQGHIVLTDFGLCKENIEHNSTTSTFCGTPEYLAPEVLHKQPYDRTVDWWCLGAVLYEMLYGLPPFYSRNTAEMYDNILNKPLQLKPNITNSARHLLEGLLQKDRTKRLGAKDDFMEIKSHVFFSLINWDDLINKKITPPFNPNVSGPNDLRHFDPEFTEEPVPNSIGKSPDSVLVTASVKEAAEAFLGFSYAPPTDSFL

| SMILES | activity at 20 µM [1] [%] | activity at 20 µM [2] [%] | activity at 20 µM [3] [%] | activity at 20 µM [4] [%] | activity at 20 µM [5] [%] | activity at 20 µM [6] [%] | activity at 20 µM [7] [%] | activity at 20 µM [8] [%] | activity at 20 µM [9] [%] | activity at 20 µM [10] [%] | activity at 20 µM [11] [%] | activity at 20 µM [12] [%] | activity at 20 µM [13] [%] | activity at 20 µM [14] [%] | activity at 20 µM [15] [%] | activity at 20 µM [16] [%] | activity at 20 µM [17] [%] | activity at 20 µM [18] [%] | activity at 20 µM [20] [%] | activity at 20 µM [21] [%] | also measured |
| --- | --- | --- | --- | --- | --- | --- | --- | --- | --- | --- | --- | --- | --- | --- | --- | --- | --- | --- | --- | --- | --- |
| CN(C)c1cc(-c2ccncc2)c(-c2ccc3ccccc3c2)nn1 [MW108, N, N-dimethyl-6-(naphthalen-2-yl)-5-(pyridin-4-yl)pyridazin-3-amine] | 105 | 88 | 104 | 104 | 99 | 48 | 101 | 100 | 109 | 104 | 100 | 68 | 96 | 97 | 98 | 108 | 101 | 86 | 35 | 95 | IC50 [6]: > 30000 nM; activity at 20 µM [19]: 78%; IC50 [20]: 18900 nM; activity at 20 µM [22]: 94%; activity at 20 µM [23]: 100%; cued learning [24]: No difference was detected between groups; contextual fear memory deficit [24]: ameliorated the contextual fear memory deficit; IC50 [25]: 1210 nM; activity at 20 µM [25]: 20% |
| CN(C)c1cc(-c2ccncc2)c(-c2cccc3ccccc23)nn1 [MW181, N,N-dimethyl-6-(naphthalen-1-yl)-5-(pyridin-4-yl)pyridazin-3-amine] | 112 | 88 | 95 | 100 | 101 | 84 | 102 | 98 | 101 | 100 | 101 | 105 | 102 | 96 | 107 | 98 | 100 | 113 | 77 | 95 | activity at 20 µM ([19]; at 20,000 nM inhibitor, kinase activity remaining, read-out: % Activity): 109%; activity at 20 µM [22]: 102%; activity at 20 µM [23]: 106%; cued learning [24]: No difference was detected between groups; contextual fear memory deficit [24]: ameliorated the contextual fear memory deficit; IC50 [25]: 206 nM |
